Reference: ChEMBL document CHEMBL5352398 (Eur J Med Chem, 2022)
Calls of active or inactive are those of the source. The calls are words filed in the database; no cut-off is given here.

Assays:
[1] = target: T1, Solute carrier family 22 member 12 (Homo sapiens, UniProt Q96S37); experiment: Inhibition of human URAT1 stably overexpressing in human HEK293 cells assessed as inhibition of 14C-uric acid uptake preincubated for 30 mins followed by substrate addition and measured after 15 mins using 14C-uric acid as substrate by liquid scintillation counting analysis; format: cell-based
T1 sequence (Q96S37 whole entry): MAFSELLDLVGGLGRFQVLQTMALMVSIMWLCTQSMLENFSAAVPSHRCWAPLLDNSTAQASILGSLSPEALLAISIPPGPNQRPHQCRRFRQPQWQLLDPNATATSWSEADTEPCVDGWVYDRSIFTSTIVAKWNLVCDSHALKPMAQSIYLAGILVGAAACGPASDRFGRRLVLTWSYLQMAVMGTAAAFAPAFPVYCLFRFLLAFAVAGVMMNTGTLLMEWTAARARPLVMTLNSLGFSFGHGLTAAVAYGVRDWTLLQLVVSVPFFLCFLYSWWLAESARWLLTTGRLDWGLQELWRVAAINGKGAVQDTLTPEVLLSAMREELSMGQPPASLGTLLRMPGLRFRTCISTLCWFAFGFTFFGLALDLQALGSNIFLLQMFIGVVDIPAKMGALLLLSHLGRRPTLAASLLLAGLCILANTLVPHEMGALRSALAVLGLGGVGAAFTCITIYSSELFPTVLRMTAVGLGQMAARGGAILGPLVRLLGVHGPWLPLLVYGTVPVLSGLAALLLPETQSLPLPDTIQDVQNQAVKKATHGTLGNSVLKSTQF

Mus musculus = experiment: Anti-hyperuricemic activity against potassium oxonate induced hyperuricemia in Kunming mouse model assessed as decrease in serum urate level at 2 mg/kg, po and measured after 3 hrs; format: functional, organism-based
[2] = Toxicity in Kunming mouse assessed as inflammatory infiltration in kidney at 50 mg/kg, po administered and measured after 14 days by HE staining; format: organism-based; details: in vivo, 336 h, time 14 day
[3] = Subacute toxicity in Kunming mouse assessed as ruffled fur at 50 mg/kg,po for 14 days; format: organism-based; details: in vivo, 336 h, time 14 day
[4] = Hepatotoxicity in Kunming mouse assessed as increase in AST level in serum at 50 mg/kg,po for 14 days in presence of BSO; format: toxicity, organism-based; details: in vivo, 336 h, time 14 day
[5] = MRT (0 to infinity) in Sprague-Dawley rat at 5 mg/kg, iv and measured upto 24 hrs by LC-MS/MS analysis; format: ADME, organism-based; details: in vivo
[6] = Toxicity in Kunming mouse assessed as appearance of normal glomerulus cells in kidney at 50 mg/kg, po administered and measured after 14 days by HE staining; format: organism-based; details: in vivo, 336 h, time 14 day
[7] = Cmax in Sprague-Dawley rat at 5 mg/kg, po and measured upto 24 hrs by LC-MS/MS analysis; format: ADME, organism-based; design: dose 5 mg/kg, time < 24 hrs, route po; details: in vivo
[8] = Subacute toxicity in Kunming mouse assessed as lethargy at 50 mg/kg,po for 14 days; format: organism-based; details: in vivo, 336 h, time 14 day
[9] = Toxicity in Kunming mouse assessed as cell arrangements in liver at 50 mg/kg, po administered and measured after 14 days by HE staining; format: organism-based; details: in vivo, 336 h, time 14 day
[10] = AUC(0 to infinity) in Sprague-Dawley rat at 5 mg/kg, po and measured upto 24 hrs by LC-MS/MS analysis; format: ADME, organism-based; design: time < 24 hrs, dose 5 mg/kg, route po; details: in vivo
[11] = target: T2, Solute carrier family 22 member 6 (Homo sapiens, UniProt Q4U2R8); experiment: Inhibition of OAT1 (unknown origin) transfected in HEK293 cells assessed as inhibition of 6-CFL uptake preincubated for 30 mins followed by 6-CFL addition and measured for 15 mins by fluorescence based microplate reader analysis; format: cell-based
T2 sequence (Q4U2R8 whole entry): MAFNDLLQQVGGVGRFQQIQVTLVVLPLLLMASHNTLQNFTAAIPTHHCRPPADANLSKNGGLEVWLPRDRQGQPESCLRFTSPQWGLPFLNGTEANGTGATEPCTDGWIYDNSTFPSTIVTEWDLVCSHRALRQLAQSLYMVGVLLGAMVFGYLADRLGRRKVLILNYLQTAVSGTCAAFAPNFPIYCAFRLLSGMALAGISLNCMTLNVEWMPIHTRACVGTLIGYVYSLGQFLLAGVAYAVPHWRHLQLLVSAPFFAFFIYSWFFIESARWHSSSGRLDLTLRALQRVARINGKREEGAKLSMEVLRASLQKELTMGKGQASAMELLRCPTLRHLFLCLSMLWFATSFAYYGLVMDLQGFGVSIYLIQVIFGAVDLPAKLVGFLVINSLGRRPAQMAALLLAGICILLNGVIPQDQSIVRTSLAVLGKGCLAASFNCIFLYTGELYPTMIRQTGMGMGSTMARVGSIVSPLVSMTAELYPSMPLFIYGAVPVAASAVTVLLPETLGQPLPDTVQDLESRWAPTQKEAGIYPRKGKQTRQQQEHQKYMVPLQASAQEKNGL

[12] = Subacute toxicity in Kunming mouse assessed as body weight change at 50 mg/kg,po for 14 days; format: organism-based; details: in vivo, 336 h, time 14 day
[13] = Subacute toxicity in Kunming mouse assessed as anorexia at 50 mg/kg,po for 14 days; format: organism-based; details: in vivo, 336 h, time 14 day
[14] = Half life in Sprague-Dawley rat at 5 mg/kg, po and measured upto 24 hrs by LC-MS/MS analysis; format: ADME, organism-based; details: in vivo
[15] = Toxicity in Kunming mouse assessed as inflammatory infiltration in liver at 50 mg/kg, po administered and measured after 14 days by HE staining; format: organism-based; details: in vivo, 336 h, time 14 day
[16] = target: T3, Solute carrier family 2, facilitated glucose transporter member 9 (Mus musculus, UniProt Q3T9X0); experiment: Inhibition of mouse GLUT9 transfected in human HEK293 cells assessed as inhibition of uric acid induced current by cell patch-clamp assay; format: cell-based
T3 sequence (Q3T9X0 whole entry): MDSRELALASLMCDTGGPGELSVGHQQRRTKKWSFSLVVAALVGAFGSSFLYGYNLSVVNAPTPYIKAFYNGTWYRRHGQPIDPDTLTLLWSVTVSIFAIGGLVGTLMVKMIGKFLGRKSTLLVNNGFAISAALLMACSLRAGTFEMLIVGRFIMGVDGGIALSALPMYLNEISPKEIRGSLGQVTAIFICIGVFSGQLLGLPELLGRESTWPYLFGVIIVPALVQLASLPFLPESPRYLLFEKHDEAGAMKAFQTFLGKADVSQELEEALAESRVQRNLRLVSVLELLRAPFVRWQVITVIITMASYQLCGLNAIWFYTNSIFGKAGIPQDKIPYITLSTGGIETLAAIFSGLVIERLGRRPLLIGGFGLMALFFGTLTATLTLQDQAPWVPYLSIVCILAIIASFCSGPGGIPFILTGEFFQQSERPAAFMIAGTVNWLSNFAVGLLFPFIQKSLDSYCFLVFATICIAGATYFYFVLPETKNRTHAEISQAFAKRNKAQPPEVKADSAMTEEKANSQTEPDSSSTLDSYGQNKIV

[17] = Tmax in Sprague-Dawley rat at 5 mg/kg, iv and measured upto 24 hrs by LC-MS/MS analysis; format: ADME, organism-based; details: in vivo
[18] = Tmax in Sprague-Dawley rat at 5 mg/kg, po and measured upto 24 hrs by LC-MS/MS analysis; format: ADME, organism-based; details: in vivo
[19] = AUC(0 to infinity) in Sprague-Dawley rat at 5 mg/kg, iv and measured upto 24 hrs by LC-MS/MS analysis; format: ADME, organism-based; design: dose 5 mg/kg, time < 24 hrs, route iv; details: in vivo
[20] = Hepatotoxicity in Kunming mouse assessed as increase in ALT level in serum at 50 mg/kg,po for 14 days in presence of BSO; format: toxicity, organism-based; details: in vivo, 336 h, time 14 day
[21] = Oral bioavailability in Sprague-Dawley rat at 5 mg/kg and measured upto 24 hrs by LCMS analysis; format: ADME, organism-based; details: in vivo
[22] = Cmax in Sprague-Dawley rat at 5 mg/kg, iv and measured upto 24 hrs by LC-MS/MS analysis; format: ADME, organism-based; design: time < 24 hrs, dose 5 mg/kg, route iv; details: in vivo
[23] = MRT (0 to infinity) in Sprague-Dawley rat at 5 mg/kg, po and measured upto 24 hrs by LC-MS/MS analysis; format: ADME, organism-based; details: in vivo
[24] = Subacute toxicity in Kunming mouse assessed as clonic convulsion at 50 mg/kg,po for 14 days; format: organism-based; details: in vivo, 336 h, time 14 day
[25] = Toxicity in Kunming mouse assessed as appearance of normal tubular structure in kidney at 50 mg/kg, po administered and measured after 14 days by HE staining; format: organism-based; details: in vivo, 336 h, time 14 day
HepG2 = experiment: Cytotoxicity against human HepG2 cells assessed as reduction in cell viability upto 400 uM incubated for 24 hrs by MTT assay; format: toxicity, cell-based; details: hepg2, 24 h
[26] = Renal toxicity in Kunming mouse assessed as effect on creatinine level at 50 mg/kg,po for 14 days; format: organism-based; details: in vivo, 336 h, time 14 day
[27] = Subacute toxicity in Kunming mouse assessed as animal death at 50 mg/kg,po for 14 days; format: organism-based; details: in vivo, 336 h, time 14 day
[28] = Half life in Sprague-Dawley rat at 5 mg/kg, iv and measured upto 24 hrs by LC-MS/MS analysis; format: ADME, organism-based; details: in vivo
[29] = Renal toxicity in Kunming mouse assessed as effect on BUN level at 50 mg/kg,po for 14 days; format: organism-based; details: in vivo, 336 h, time 14 day

Structure (SMILES): O=C(c1cc(Cl)c(O)c(Cl)c1)n1ccc2c(Cl)ncnc21
- IC50 [1]: 1980 nM

Structure (SMILES): Cc1cc(C(=O)n2ccc3cccnc32)ccc1O
- IC50 [1]: 5830 nM

Structure (SMILES): O=C(c1cc(Cl)c(O)c(Cl)c1)n1ccc2ccncc21
- IC50 [1]: 3220 nM

Structure (SMILES): O=C(O)CSc1nnc(Br)n1-c1ccc(C2CC2)c2ccccc12
- Activity (Mus musculus): Active

Structure (SMILES): O=C(c1cc(Cl)c(O)c(Cl)c1)n1cc(Br)c2cccnc21
- IC50 [1]: 1550 nM

Structure (SMILES): COc1cc(C(=O)n2ccc3cccnc32)cc(OC)c1O
- IC50 [1]: 4850 nM

Structure (SMILES): O=C(c1cc(Cl)c(O)c(Cl)c1)n1ccc2cccnc21
- Activity [2]: Non-Toxic
- Activity [3]: Non-Toxic
- Activity [4]: Non-Toxic
- MRT inf [5]: 9.85 h
- Activity [6]: Non-Toxic
- Cmax [7]: 6830 ng/mL
- Activity [8]: Non-Toxic
- Activity [9]: Non-Toxic
- AUC(0-inf) [10]: 35300 ng·h/mL
- IC50 [11]: 10200 nM
- Activity [12]: Non-Toxic
- Activity [13]: Non-Toxic
- half-life [14]: 4.61 h
- Activity [15]: Non-Toxic
- IC50 [16]: > 20000 nM
- Tmax [17]: 0.52 h
- Tmax [18]: 0.29 h
- AUC(0-inf) [19]: 63800 ng·h/mL
- Activity [20]: Non-Toxic
- bioavailability [21]: 55.3%
- Cmax [22]: 18400 ng/mL
- MRT inf [23]: 7.27 h
- Activity [24]: Non-Toxic
- Activity [25]: Non-Toxic
- Activity (HepG2): Toxic
- IC50 [1]: 800 nM
- Activity [26]: Non-Toxic
- Activity [27]: Non-Toxic
- half-life [28]: 6.8 h
- Activity [29]: Non-Toxic

Structure (SMILES): O=C(c1cc(Cl)c(O)c(Cl)c1)N1CCc2cc(Br)ccc21
- IC50 [1]: 2360 nM

Structure (SMILES): O=C(c1cc(Cl)c(O)c(Cl)c1)n1ncc2ccccc21
- IC50 [1]: 2260 nM

Structure (SMILES): O=C(c1ccc(O)cc1)n1ccc2cccnc21
- IC50 [1]: 1720 nM

Structure (SMILES): O=C(c1ccc(O)c([N+](=O)[O-])c1)n1ccc2cccnc21
- IC50 [1]: 2950 nM

Structure (SMILES): O=C(c1ccc(O)c(Cl)c1)n1ccc2cccnc21
- IC50 [1]: 1580 nM

Structure (SMILES): O=C(c1cc(Cl)c(O)c(Cl)c1)n1ccc2ncccc21
- IC50 [1]: 1560 nM

Structure (SMILES): O=C(c1cc(Br)c(O)c(Br)c1)n1ccc2cccnc21
- IC50 [1]: 2300 nM

Structure (SMILES): Cc1cc(C(=O)n2ccc3cccnc32)cc(C)c1O
- IC50 [1]: 2700 nM

Structure (SMILES): COc1cc(C(=O)n2ccc3cccnc32)ccc1O
- IC50 [1]: 2690 nM

Structure (SMILES): O=C(c1cc(Cl)c(O)c(Cl)c1)n1ccc2cnccc21
- IC50 [1]: 2810 nM

Structure (SMILES): O=C(c1ccc(O)c(F)c1)n1ccc2cccnc21
- IC50 [1]: 2080 nM

Structure (SMILES): CC1Cc2ccccc2N1C(=O)c1cc(Cl)c(O)c(Cl)c1 (stereo unspecified)
- IC50 [1]: 1600 nM

Structure (SMILES): Cc1ccc2c(cnn2C(=O)c2cc(Cl)c(O)c(Cl)c2)c1
- IC50 [1]: 1810 nM

Structure (SMILES): CC(C)(Sc1ccncc1-c1ccc(C#N)c2ccccc12)C(=O)O
- IC50 [1]: 130 nM

Structure (SMILES): O=C(c1ccc(O)c(Br)c1)n1ccc2cccnc21
- IC50 [1]: 3800 nM
